The numbers were not newly measured in patent publication US8916516B2, “Treatment of fungal and/or protist infections” (AI2 Limited, priority 2005, dated 2014), which cites them from elsewhere.

The data set relates to bacteria. The following applies: reported by Azuma et al., Peptides 21: 327-330 (2000); cited from earlier work.

As to “apoE134-159: Azuma's apolipoprotein E peptide, 26 amino acids in length (RVRLASHLRKLRKRLLRDADDLQKRL; UniProt P02649 152-177, looked up, fragment)”, the “antibacterial activity (in words)” value is recorded as “greatly reduced antibacterial activity”.
